Read-outs that look alike come from different tables or passages of the source.
Assays:
[1] = LD50 determination, tail vein injection; format: in vivo, mice; settings: both sexes, KunMing (KM), mouse, in vivo, intravenous, KM mice, tail vein injection
Protocol: (§1) 1. Experimental animal: KunMing (KM) mice, provided by Shanghai Slac Laboratory Animal Co., Ltd., half and half of female and male, 6 groups, ten in each group, marked by bitter acid.
(§2) 2. […] Preparing medical solution of equal ratio: dissolving with 0.9% NaCl to prepare the medical solution with the concentration of 336 mg/7 ml, 316.96 mg/7 ml, 299.32 mg/7 ml, 282.52 mg/7 ml, 266.84 mg/7 ml, 252 mg/7 ml.
(§3) 3. Dosage for administration: with 0.5 ml/20 g bottom up.
(§4) 4. Means of administration: tail vein injection
(§5) 5. Experimental method: observing at 0.25 h, 0.5 h, 1 h, 2 h, 4 h, 24 h respectively after administration; then observing once every day 14 days; putting the mice still alive to death on the 15th day and recording the death rate.

KunMing (KM) mice = assay: LD50 determination, tail vein injection; format: in vivo; settings: for Death rate in total % Total / Death rate in total % ♀ / Death rate in total % ♂ / Deaths days 1 ♀ / Deaths days 1 ♂ / Deaths days 2 ♀ / Deaths days 2 ♂ / Deaths days 3 ♀ / Deaths days 3 ♂ / Deaths days 4 ♀ / Deaths days 4 ♂ / Deaths hours 0-4 ♀ / Deaths hours 0-4 ♂: tail vein injection
Protocol: as §1, §2, §3, §4, §5

S180 sarcoma = settings: for 0 d weight / 11 d weight without tumor / Tumor inhibiting rate % / Tumor weight: i.v., S180 sarcoma-bearing mice
Description: (1) Sample: 3,4,5,4′-tetramethoxyl-α,β-diphenylethane-3′-O-sodium sulphate (AS) provided by Zhejiang Cell Biomedical Research Co., Ltd., and prepared by the process in Example One. Dissolved by physiological saline for the concentration needed.
(2) Control product: Cyclophosphamide for injection (CTX), Jiangsu Hengrui Pharmaceutical Inc. Co. Batch No.: 04123021 Dissolved by physiological saline for preparation.
(1) KM mouse bearing S180 sarcoma.
(2) 50 KM mice, female, weighting 18-22 g, provided by Zhejing College of Traditional Chinese Medicine.
(1) Drawing ascites under aseptic condition from mouse bearing S180 sarcoma, diluting with physiologic saline 1:3, giving subcutaneous inoculation in the armpit of the right forelimb of the KM mice with 0.2 ml each; dividing the mice into 5 groups randomly the next day, 10 in each group.
(2) Administering drug to the mice by weight the third day of inoculation, intravenous administration 0.5 ml/20 g […], by weight, and putting them to death on the 11th day after inoculation, weighing the tumor and calculating the rate of tumor inhibition.
(3) dosage (mg/kg/d) and means of administration:
AS: 50 mg/kg, tail vein injection
AS: 100 mg/kg, tail vein injection
AS: 200 mg/kg, tail vein injection
CTX: 30 mg/kg, tail vein injection
Setting up another blank control group, tail vein injection of 0.9% NaCl 0.5 ml.
(4) Judging the result with the following formula: […]

COc1ccc(CCc2cc(OC)c(OC)c(OC)c2)cc1OS(=O)(=O)[O-].[Na+] [AS, 3,4,5,4′-tetramethoxyl-α,β-diphenylethane-3′-O-sodium sulphate]
LD50 at 14 days ([1]; observed 14 days, read-out: LD50): 1080 mg/kg | LD50 at 14 days ([1]; read-out: LD50 (Feiller correction) 95% confidence interval): 1030 to 1130 mg/kg | Death rate in total % Total (KunMing (KM) mice; 900 mg/kg): 0% | Death rate in total % ♀ (KunMing (KM) mice; 900 mg/kg): 0% | Death rate in total % ♂ (KunMing (KM) mice; 900 mg/kg): 0% | Deaths days 1 ♀ (KunMing (KM) mice; 900 mg/kg): 0 | Deaths days 1 ♂ (KunMing (KM) mice; 900 mg/kg): 0 | Deaths days 2 ♀ (KunMing (KM) mice; 900 mg/kg): 0 | Deaths days 2 ♂ (KunMing (KM) mice; 900 mg/kg): 0 | Deaths days 3 ♀ (KunMing (KM) mice; 900 mg/kg): 0 | Deaths days 3 ♂ (KunMing (KM) mice; 900 mg/kg): 0 | Deaths days 4 ♀ (KunMing (KM) mice; 900 mg/kg): 0 | Deaths days 4 ♂ (KunMing (KM) mice; 900 mg/kg): 0 | Deaths hours 0-4 ♀ (KunMing (KM) mice; 900 mg/kg): 0 | Deaths hours 0-4 ♂ (KunMing (KM) mice; 900 mg/kg): 0 | Death rate in total % Total (KunMing (KM) mice; 953 mg/kg): 0% | Death rate in total % ♀ (KunMing (KM) mice; 953 mg/kg): 0% | Death rate in total % ♂ (KunMing (KM) mice; 953 mg/kg): 0% | Deaths days 1 ♀ (KunMing (KM) mice; 953 mg/kg): 0 | Deaths days 1 ♂ (KunMing (KM) mice; 953 mg/kg): 0 | Deaths days 2 ♀ (KunMing (KM) mice; 953 mg/kg): 0 | Deaths days 2 ♂ (KunMing (KM) mice; 953 mg/kg): 0 | Deaths days 3 ♀ (KunMing (KM) mice; 953 mg/kg): 0 | Deaths days 3 ♂ (KunMing (KM) mice; 953 mg/kg): 0 | Deaths days 4 ♀ (KunMing (KM) mice; 953 mg/kg): 0 | Deaths days 4 ♂ (KunMing (KM) mice; 953 mg/kg): 0 | Deaths hours 0-4 ♀ (KunMing (KM) mice; 953 mg/kg): 0 | Deaths hours 0-4 ♂ (KunMing (KM) mice; 953 mg/kg): 0 | Death rate in total % Total (KunMing (KM) mice; 1009 mg/kg): 40% | Death rate in total % ♀ (KunMing (KM) mice; 1009 mg/kg): 20% | Death rate in total % ♂ (KunMing (KM) mice; 1009 mg/kg): 60% | Deaths days 1 ♀ (KunMing (KM) mice; 1009 mg/kg): 0 | Deaths days 1 ♂ (KunMing (KM) mice; 1009 mg/kg): 0 | Deaths days 2 ♀ (KunMing (KM) mice; 1009 mg/kg): 0 | Deaths days 2 ♂ (KunMing (KM) mice; 1009 mg/kg): 0 | Deaths days 3 ♀ (KunMing (KM) mice; 1009 mg/kg): 0 | Deaths days 3 ♂ (KunMing (KM) mice; 1009 mg/kg): 0 | Deaths days 4 ♀ (KunMing (KM) mice; 1009 mg/kg): 0 | Deaths days 4 ♂ (KunMing (KM) mice; 1009 mg/kg): 0 | Deaths hours 0-4 ♀ (KunMing (KM) mice; 1009 mg/kg): 1 | Deaths hours 0-4 ♂ (KunMing (KM) mice; 1009 mg/kg): 3 | Death rate in total % Total (KunMing (KM) mice; 1069 mg/kg): 80% | Death rate in total % ♀ (KunMing (KM) mice; 1069 mg/kg): 80% | Death rate in total % ♂ (KunMing (KM) mice; 1069 mg/kg): 80% | Deaths days 1 ♀ (KunMing (KM) mice; 1069 mg/kg): 0 | Deaths days 1 ♂ (KunMing (KM) mice; 1069 mg/kg): 0 | Deaths days 2 ♀ (KunMing (KM) mice; 1069 mg/kg): 0 | Deaths days 2 ♂ (KunMing (KM) mice; 1069 mg/kg): 0 | Deaths days 3 ♀ (KunMing (KM) mice; 1069 mg/kg): 0 | Deaths days 3 ♂ (KunMing (KM) mice; 1069 mg/kg): 0 | Deaths days 4 ♀ (KunMing (KM) mice; 1069 mg/kg): 0 | Deaths days 4 ♂ (KunMing (KM) mice; 1069 mg/kg): 0 | Deaths hours 0-4 ♀ (KunMing (KM) mice; 1069 mg/kg): 4 | Deaths hours 0-4 ♂ (KunMing (KM) mice; 1069 mg/kg): 4 | Death rate in total % Total (KunMing (KM) mice; 1132 mg/kg): 60% | Death rate in total % ♀ (KunMing (KM) mice; 1132 mg/kg): 60% | Death rate in total % ♂ (KunMing (KM) mice; 1132 mg/kg): 60% | Deaths days 1 ♀ (KunMing (KM) mice; 1132 mg/kg): 0 | Deaths days 1 ♂ (KunMing (KM) mice; 1132 mg/kg): 0 | Deaths days 2 ♀ (KunMing (KM) mice; 1132 mg/kg): 0 | Deaths days 2 ♂ (KunMing (KM) mice; 1132 mg/kg): 0 | Deaths days 3 ♀ (KunMing (KM) mice; 1132 mg/kg): 0 | Deaths days 3 ♂ (KunMing (KM) mice; 1132 mg/kg): 0 | Deaths days 4 ♀ (KunMing (KM) mice; 1132 mg/kg): 0 | Deaths days 4 ♂ (KunMing (KM) mice; 1132 mg/kg): 0 | Deaths hours 0-4 ♀ (KunMing (KM) mice; 1132 mg/kg): 3 | Deaths hours 0-4 ♂ (KunMing (KM) mice; 1132 mg/kg): 3 | Death rate in total % Total (KunMing (KM) mice; 1200 mg/kg): 70% | Death rate in total % ♀ (KunMing (KM) mice; 1200 mg/kg): 40% | Death rate in total % ♂ (KunMing (KM) mice; 1200 mg/kg): 100% | Deaths days 1 ♀ (KunMing (KM) mice; 1200 mg/kg): 0 | Deaths days 1 ♂ (KunMing (KM) mice; 1200 mg/kg): 0 | Deaths days 2 ♀ (KunMing (KM) mice; 1200 mg/kg): 0 | Deaths days 2 ♂ (KunMing (KM) mice; 1200 mg/kg): 0 | Deaths days 3 ♀ (KunMing (KM) mice; 1200 mg/kg): 0 | Deaths days 3 ♂ (KunMing (KM) mice; 1200 mg/kg): 0 | Deaths days 4 ♀ (KunMing (KM) mice; 1200 mg/kg): 0 | Deaths days 4 ♂ (KunMing (KM) mice; 1200 mg/kg): 0 | Deaths hours 0-4 ♀ (KunMing (KM) mice; 1200 mg/kg): 2 | Deaths hours 0-4 ♂ (KunMing (KM) mice; 1200 mg/kg): 5 | toxicity (in words) (KunMing (KM) mice; conclusion from LD50): very low | 0 d weight (S180 sarcoma; Dosage 50 mg/kg): 21.06 ± 0.82 g | 11 d weight without tumor (S180 sarcoma; Dosage 50 mg/kg): 25.89 ± 3.32 g | Tumor inhibiting rate % (S180 sarcoma; Dosage 50 mg/kg): 44% | Tumor weight (S180 sarcoma; Dosage 50 mg/kg): 1.63 ± 1.43 g | 0 d weight (S180 sarcoma; Dosage 100 mg/kg): 20.46 ± 1.03 g | 11 d weight without tumor (S180 sarcoma; Dosage 100 mg/kg): 28.42 ± 4.13 g | Tumor inhibiting rate % (S180 sarcoma; Dosage 100 mg/kg): 29% | Tumor weight (S180 sarcoma; Dosage 100 mg/kg): 2.07 ± 1.03 g | 0 d weight (S180 sarcoma; Dosage 200 mg/kg): 20.45 ± 0.86 g | 11 d weight without tumor (S180 sarcoma; Dosage 200 mg/kg): 27.10 ± 2.44 g | Tumor inhibiting rate % (S180 sarcoma; Dosage 200 mg/kg): 54% | Tumor weight (S180 sarcoma; Dosage 200 mg/kg): 1.34 ± 0.53 g | inhibitory effect on S180 tumors (in words) (S180 sarcoma; result analysis): excellent inhibitory effect

— US7632863B2, “3,4,5,4′-tetramethoxyl-α,β-diphenylethane-3′-O-sodium sulphate and its use” (The Jian Cell Biomedical Research Co., Ltd., priority 2007, dated 2009)
